Data: patent EP0526540B1, “USE OF 5-HT4-RECEPTOR ANTAGONISTS IN THE TREATMENT OF ATRIAL FIBRILLATION, INCLUDING THE PREVENTION OF STROKE” (SMITH KLINE & FRENCH LABORATORIES LIMITED, priority 1990, dated 1991)

Assays:
cardiac 5-HT4 receptors [1] = target: cardiac 5-HT4 receptors (Sus scrofa, UniProt Q6Q253); assay: Piglet spontaneous beating atria screen (right atrium, positive chronotropic effect, antagonism of 5-HT); type: cell-based, Porcine
Procedure: Method (See A. J. Kaumann, 1990, Naunyn-Schmiedeberg's Arch. Pharmacol 342, 619-622).
Piglets of either sex, 2 to 5 days old, were obtained from local farms. Usually 2 piglets were from the same litter. The piglets were anaesthetised with halothene; their hearts rapidly removed and washed free of blood with warm solution containing (mM):120 Na^+, 5 K^+, 2.25 Ca^2+, 0.5 Mg^2+, 98.5 Cl^-, 0.5 SO4^2-, 34 HCO3^-, 1 HPO4^2-, 0.04 EDTA, deionised and double distilled water in glass, equilibrated with 95% O2 and 5% CO2.
After dissection of the right atrium in warm solution, the tissue was set up in an apparatus with a 50 ml. bath (Blinks, 1965 J. Appl. Physiol. 20, 755-757), containing the solution described above supplemented with (mM):15 Na^+, 5 fumarate, 5 pyruvate, 5 L-glutamate, 10 glucose. Experiments were carried out at 37°C. […] The tissue was attached to a Swema SG4-45 strain gauge transducer by means of a stainless steel wire and force recorded on a Watanabe polygraph. […]
A single cumulative concentration-effect curve was determined by the sequential addition of 5-HT or other agonists to the bath in amounts that increased the total concentration in steps of ½ log unit. […] The time of incubation with an antagonist was at least 1 hr before a concentration-effect curve for an agonist was determined.

cardiac 5-HT4 receptors [2] = target: T1, cardiac 5-HT4 receptors (Homo sapiens, UniProt Q13639); assay: Human right atrial preparations (force), blocking potency of antagonists; type: cell-based; conditions: Granisetron tested at 20 µM
T1 construct: from tissue; host or cells: human right atrial preparation
T1 sequence (Q13639 whole entry): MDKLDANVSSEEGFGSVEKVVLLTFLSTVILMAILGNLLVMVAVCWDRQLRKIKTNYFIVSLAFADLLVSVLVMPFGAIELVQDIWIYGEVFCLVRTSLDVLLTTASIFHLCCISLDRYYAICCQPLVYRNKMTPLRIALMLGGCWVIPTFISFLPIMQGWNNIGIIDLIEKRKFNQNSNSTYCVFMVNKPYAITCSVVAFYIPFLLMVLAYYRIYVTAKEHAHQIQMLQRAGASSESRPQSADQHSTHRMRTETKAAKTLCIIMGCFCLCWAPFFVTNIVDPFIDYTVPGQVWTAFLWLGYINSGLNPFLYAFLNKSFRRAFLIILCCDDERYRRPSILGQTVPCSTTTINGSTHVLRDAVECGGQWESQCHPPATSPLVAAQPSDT

Sequence of cardiac 5-HT4 receptors (Sus scrofa, UniProt Q6Q253) (Q6Q253 1-402): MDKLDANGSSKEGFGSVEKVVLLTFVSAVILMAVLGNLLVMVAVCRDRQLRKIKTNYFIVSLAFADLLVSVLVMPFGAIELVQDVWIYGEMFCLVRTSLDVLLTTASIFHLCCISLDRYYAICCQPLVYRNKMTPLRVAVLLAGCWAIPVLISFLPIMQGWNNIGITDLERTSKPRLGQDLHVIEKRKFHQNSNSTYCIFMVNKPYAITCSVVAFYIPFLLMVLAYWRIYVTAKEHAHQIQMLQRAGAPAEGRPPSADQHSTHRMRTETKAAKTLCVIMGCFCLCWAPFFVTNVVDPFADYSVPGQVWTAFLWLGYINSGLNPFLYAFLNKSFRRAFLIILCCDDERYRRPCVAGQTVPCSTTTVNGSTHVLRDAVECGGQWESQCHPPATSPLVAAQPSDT

Row | pK (-log M equilibrium dissociation constant), blocking potency, Porcine (rate) (cardiac 5-HT4 receptors [1]; piglet spontaneously beating right atrium, rate, 37°C, 400 nM (±)-propranolol and 6 µM cocaine present, antagonist incubated at least 1 hr, Granisetron tested at 1 µM, preliminary screening results) | pK (-log M equilibrium dissociation constant), blocking potency, Human (force) (cardiac 5-HT4 receptors [2]) | SMILES | type of antagonism of cardiac 5-HT4 receptors (cardiac 5-HT4 receptors [1]; conclusion from the preliminary screening results of Table 1)
1 | – | – | CN1[C@@H]2CC[C@H]1C[C@@H](OC(=O)c1n[nH]c3ccccc13)C2 [(3-α-tropanyl)-1H-indazole-3-carboxylic acid ester] | competitive antagonist
2 | ineffective (1 µM) | ineffective (20 µM) | CN1C2CCCC1CC(NC(=O)c1nn(C)c3ccccc13)C2 (stereo not drawn) [Granisetron] | –
